pIC50, pKi: −log10 of the molar value. One block for each compound: values may come before it.
Tests used:
[1] = target: Inositol hexakisphosphate kinase 1, Homo sapiens (UniProt Q92551)
[2] = target: Carbonic anhydrase 2, Homo sapiens (UniProt P00918)
[3] = target: Delta-type opioid receptor, Mus musculus (UniProt P32300)
[4] = target: Carbonic anhydrase 2, Homo sapiens (UniProt P00918); remark: listed apart in the source
[5] = target: T1, Carbonic anhydrase, Pseudomonas aeruginosa (strain ATCC 15692 / DSM 22644 / CIP 104116 / JCM 14847 / LMG 12228 / 1C / PRS 101 / PAO1) (UniProt Q9HVB9)
T1 sequence (whole entry): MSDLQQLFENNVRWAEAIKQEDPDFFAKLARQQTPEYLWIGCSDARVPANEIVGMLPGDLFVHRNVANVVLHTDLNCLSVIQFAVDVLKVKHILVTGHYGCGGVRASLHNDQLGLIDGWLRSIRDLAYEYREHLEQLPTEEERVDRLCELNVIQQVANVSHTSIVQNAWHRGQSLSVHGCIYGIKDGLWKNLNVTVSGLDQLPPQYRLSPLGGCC

[6] = target: T2, Carbonic anhydrase, Methanosarcina thermophila (strain ATCC 43570 / DSM 1825 / OCM 12 / VKM B-1830 / TM-1) (UniProt P40881)
T2 sequence (whole entry): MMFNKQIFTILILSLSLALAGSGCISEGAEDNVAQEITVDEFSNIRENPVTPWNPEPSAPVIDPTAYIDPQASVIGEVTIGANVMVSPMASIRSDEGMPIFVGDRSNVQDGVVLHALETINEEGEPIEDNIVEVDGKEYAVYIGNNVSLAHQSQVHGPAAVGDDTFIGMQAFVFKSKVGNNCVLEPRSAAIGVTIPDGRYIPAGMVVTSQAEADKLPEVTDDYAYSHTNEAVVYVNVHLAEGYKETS

[7] = target: T3, Muscarinic acetylcholine receptor M5, Homo sapiens (UniProt P08912)
T3 sequence (whole entry): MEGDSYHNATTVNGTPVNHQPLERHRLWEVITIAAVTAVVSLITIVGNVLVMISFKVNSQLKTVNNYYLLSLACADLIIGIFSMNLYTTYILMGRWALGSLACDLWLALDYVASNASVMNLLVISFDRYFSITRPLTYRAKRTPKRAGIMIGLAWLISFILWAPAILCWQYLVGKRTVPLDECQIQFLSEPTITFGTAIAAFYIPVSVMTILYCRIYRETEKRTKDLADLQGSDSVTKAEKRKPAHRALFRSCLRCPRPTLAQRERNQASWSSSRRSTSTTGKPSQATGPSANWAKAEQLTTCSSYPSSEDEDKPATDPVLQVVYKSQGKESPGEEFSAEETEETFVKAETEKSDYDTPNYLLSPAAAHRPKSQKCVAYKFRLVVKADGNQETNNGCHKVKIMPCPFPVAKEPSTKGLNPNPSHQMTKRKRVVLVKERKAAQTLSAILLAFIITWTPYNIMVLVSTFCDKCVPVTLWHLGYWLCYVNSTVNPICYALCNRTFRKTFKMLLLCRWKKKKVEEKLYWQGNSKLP

[8] = target: T4, Glycylpeptide N-tetradecanoyltransferase, Trypanosoma brucei brucei (strain 927/4 GUTat10.1) (UniProt Q388H8)
T4 sequence (whole entry): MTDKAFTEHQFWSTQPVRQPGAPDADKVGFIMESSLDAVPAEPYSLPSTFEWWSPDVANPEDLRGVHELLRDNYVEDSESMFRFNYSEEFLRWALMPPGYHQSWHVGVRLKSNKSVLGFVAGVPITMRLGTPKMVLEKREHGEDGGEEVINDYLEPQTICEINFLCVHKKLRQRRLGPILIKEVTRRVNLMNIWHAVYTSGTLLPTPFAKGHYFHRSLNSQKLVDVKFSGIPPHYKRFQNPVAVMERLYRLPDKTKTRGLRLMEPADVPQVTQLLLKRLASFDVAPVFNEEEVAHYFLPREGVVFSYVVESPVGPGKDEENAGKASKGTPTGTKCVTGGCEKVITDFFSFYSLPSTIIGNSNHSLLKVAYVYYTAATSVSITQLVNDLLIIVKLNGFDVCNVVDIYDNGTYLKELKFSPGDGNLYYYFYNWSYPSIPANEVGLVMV

[9] = target: T5, Mitogen-activated protein kinase kinase kinase 7/TGF-beta-activated kinase 1 and MAP3K7-binding protein 1, Homo sapiens (UniProt O43318+Q15750)
T5 sequence (whole entry): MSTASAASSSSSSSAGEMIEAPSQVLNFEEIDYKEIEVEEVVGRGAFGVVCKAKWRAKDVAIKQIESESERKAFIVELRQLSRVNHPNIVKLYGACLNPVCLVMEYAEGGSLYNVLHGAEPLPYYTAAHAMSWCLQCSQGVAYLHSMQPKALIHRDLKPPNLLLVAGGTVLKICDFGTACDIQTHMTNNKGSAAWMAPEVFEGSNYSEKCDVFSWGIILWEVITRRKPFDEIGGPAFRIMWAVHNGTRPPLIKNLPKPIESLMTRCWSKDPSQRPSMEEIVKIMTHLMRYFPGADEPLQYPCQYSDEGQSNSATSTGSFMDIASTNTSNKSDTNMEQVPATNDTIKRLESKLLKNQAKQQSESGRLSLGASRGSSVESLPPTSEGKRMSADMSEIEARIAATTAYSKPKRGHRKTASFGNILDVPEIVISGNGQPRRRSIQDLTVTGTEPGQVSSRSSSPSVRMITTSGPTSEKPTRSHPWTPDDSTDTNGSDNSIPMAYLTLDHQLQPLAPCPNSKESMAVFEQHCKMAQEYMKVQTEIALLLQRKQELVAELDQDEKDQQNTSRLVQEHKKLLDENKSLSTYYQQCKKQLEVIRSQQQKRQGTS

Inositol hexakisphosphate kinase 1, Homo sapiens, sequence (Q92551 whole entry, looked up): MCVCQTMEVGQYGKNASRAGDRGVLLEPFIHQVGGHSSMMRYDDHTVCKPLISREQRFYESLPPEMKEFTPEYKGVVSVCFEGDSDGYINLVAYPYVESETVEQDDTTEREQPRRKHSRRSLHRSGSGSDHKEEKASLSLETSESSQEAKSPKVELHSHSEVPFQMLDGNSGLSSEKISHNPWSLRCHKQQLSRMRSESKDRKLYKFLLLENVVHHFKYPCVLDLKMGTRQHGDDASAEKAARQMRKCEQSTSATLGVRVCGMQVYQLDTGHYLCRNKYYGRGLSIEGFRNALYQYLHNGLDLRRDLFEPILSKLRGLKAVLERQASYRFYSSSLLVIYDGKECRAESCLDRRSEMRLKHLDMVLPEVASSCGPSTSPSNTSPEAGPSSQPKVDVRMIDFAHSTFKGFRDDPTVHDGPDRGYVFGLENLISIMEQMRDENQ
Delta-type opioid receptor, Mus musculus, sequence (P32300 whole entry): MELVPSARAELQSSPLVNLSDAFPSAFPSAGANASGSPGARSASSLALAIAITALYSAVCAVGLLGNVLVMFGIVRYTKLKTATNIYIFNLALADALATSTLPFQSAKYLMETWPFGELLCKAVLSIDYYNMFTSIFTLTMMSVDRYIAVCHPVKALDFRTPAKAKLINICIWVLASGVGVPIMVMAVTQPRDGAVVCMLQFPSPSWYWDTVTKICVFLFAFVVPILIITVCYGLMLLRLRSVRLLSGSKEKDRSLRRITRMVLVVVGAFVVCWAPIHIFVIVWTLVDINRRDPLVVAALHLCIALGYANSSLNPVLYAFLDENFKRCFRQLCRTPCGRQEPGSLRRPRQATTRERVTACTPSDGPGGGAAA

pIC50 [1]: > 3.70
Structure (SMILES): O=[N+](O)c1ccc(CNc2nc(NCc3cccc(C(F)(F)F)c3)nc3[nH]cnc23)cc1

pKi [2]: < 5.00
Structure (SMILES): CC(C)[C@H]1NC(=O)[C@@H](C)[C@@H](CC=CCCC(N)=O)NC(=O)[C@@H](Cc2ccc(O)cc2)NC(=O)[C@@H](C)NC1=O

Structure (SMILES): COc1cc2c(c(OC)c1OC)-c1cc3c(cc1C(=O)[C@@H]1COC(=O)[C@H]1C2)OCO3
pIC50 [3]: < 5.00

Structure (SMILES): C=CC(=O)Nc1ccc(Cn2nc(-c3ccc4[nH]c(C)nc4c3)c3c(N)ncnc32)cc1
pKi [4]: < 0.70 | pKi [5]: < 1.00 | pKi [6]: < 0.70

pKi [2]: < 5.00
Structure (SMILES): CC(C)[C@H]1NC(=O)[C@@H](C)[C@@H](CC=CCCC(=O)O)NC(=O)[C@@H](Cc2ccc(O)cc2)NC(=O)[C@@H](C)NC1=O

pKi [7]: < 5.00
Structure (SMILES): O=c1c(OC2C(O)OC(CO)C(O)C2O)c(-c2ccc(O)c(O)c2)oc2cc(O)cc(O)c12 (stereo not given)

Structure (SMILES): Cc1nn(C)c(C)c1N[SH+]([O-])c1c(Cl)cc(-c2ccc(OC(F)(F)F)cc2)cc1-c1ccc(OC(F)(F)F)cc1 (stereo not given)
pIC50 [8]: < 4.00

pIC50 [9]: < 5.30
Structure (SMILES): O=C1CSC(/N=N/c2c(O)[nH]c3ccccc23)=N1

Reference: the GenesisPotency data set
